Assay: processability of the solid form (grinding / micronization, flowability, sievability)
Type: physicochemical

For `COC(=O)Nc1c(N)nc(-c2nn(Cc3ccccc3F)c3ncccc23)nc1N` [modification I, methyl {4,6-diamino-2-[1-(2-fluorobenzyl)-1H-pyrazolo[3,4-b]pyridin-3-yl]pyrimidin-5-yl}carbamate], the grindability (micronization step) was “difficult to grind”.
For `COC(=O)Nc1c(N)nc(-c2nn(Cc3ccccc3F)c3ncccc23)nc1N` [semi-ethanol solvate of the formula (Ia), semi-ethanol solvate of methyl {4,6-diamino-2-[1-(2-fluorobenzyl)-1H-Pyrazolo[3,4-b]pyridin-3-yl]pyrimidin-5-yl}carbamate], the flowability and sievability (compared to modification I of the compound of the formula (I)) was “better flowability and sievability” and the “fineness and tail of coarse material in the micronisate” value (compared to modification I, micronisate) was “higher fine-ness and a reduced tail of coarse material”.
